# Experimental data as given in patent publication US20130281512A1, “AGENTS FOR TREATING DISORDERS INVOLVING MODULATION OF RYANODINE RECEPTORS” (LES LABORATOIRES SERVIER, priority 2012, published 2013).
# How the values were obtained:
# [1] = system: rat hepatocytes; experiment: Metabolic stability in rat hepatocytes; format: in vitro ADME
# Experimental: Compound solubilization: Stock solutions were made in DMSO, and working solutions in William medium containing 1/10 rat plasma or 1/4 human plasma.
# Metabolic stability determination: Compounds were incubated at 10^−7 M with isolated hepatocytes (6E+5 cells/ml for rat hepatocytes and 4E+5 cells/ml for human hepatocytes) at 37° C. in plasma from the same species diluted in Wiliams medium (1/10 dilution for rat and 1/4 dilution for human). Sampling times were performed at 0, 10, 20, 30, 60 and 120 min and enzymatic reaction stopped with methanol (v/v). Proteins were precipitated by centrifugation and the supernatant was analyzed by LC/MS/MS. Clint expressed as ml/min/g protein were calculated as for hepatic microsomes using a ratio of 0.134 mg protein/ml for 4E+5 cells/ml for human and 0.201 mg protein/ml for 6E+5 cells/ml for rat. The presence of the reference drug and the potential metabolite was checked by LC/MS/MS during the assay in each sample.
# [2] = Metabolic stability in rat microsomes (% remaining); format: in vitro ADME
# Experimental: 0.1M Tris HCl buffer at pH 7.4 containing 5 mM EDTA.
# To a 50 mL falcon tube containing 2.79 mL of dilution buffer were added 0.429 mL of NADPH-regenerating soln. A and 0.079 mL of NADPH-regenerating soln. B […]
# […] A 50 mL falcon tube containing 3.32 mL of dilution buffer was prewarmed at 37° C. for 15 min. (at least 10 min.) 0.178 mL of microsome (24.6 mg/mL) were added to the prewarmed dilution buffer. The protein concentration of this microsome preparation was 1.25 mg/mL.
# Sample (Test Compound)—Original and Intermediate Stock Solutions:
# 100 μM intermediate solution of the test compound from the original stock solution were prepared using the dilution buffer. A 5 μM solution was prepared by diluting the 100 μM intermediate solution using dilution buffer.
# (The experiments were conducted in 1.5 mL eppendorf micro centrifuge tubes) 0 minutes incubation. Procedure: a. Add 100 μL of prewarmed microsomes b. Add 50 μL of 5 μM solution of the test compound. c. Add 500 μL of cold stop solution (ice cold Methanol) d. Add 100 μL of NADPH cofactor solution to the eppendorf. a. Vortex mix the eppendorf. […]
# b. Add 100 μL of NADPH cofactor solution to the eppendorf. c. Add 50 μL of 5 μM solution of the test compound. d. Add 100 μL of prewarmed microsomes e. Incubate the eppendorf at 37° C. 300 rpm for ‘t’ min. on a thermomixer. f. Remove the eppendorf from thermomixer g. Add 500 μL of cold stop solution (ice cold Methanol) h. Vortex mix the eppendorf.
# Both the ‘0’ and ‘t’ minutes incubated samples were centrifuged at 15, 000 rcf at 4° C. for 15 min. 500 μL of the supernatant solution was removed and subject it to LC/MS analysis (SIM—Selected Ion Monitoring) […]
# Results are expressed as % test compound remaining=(MS Area response of T min sample/MS Area response of ‘0’ min sample)*100. The MS area used is an average of duplicate injections.
# Time points=0, 15, 30 and 60 min. for each test compound
# 2 μM Imipramine—5 min. and 2 μM Imipramine—15 min. incubation was used as a positive control for the rat and mouse liver microsome stability experiments.
smiles,measurement,setting,value
"COc1ccc2c(c1)CN(Cc1ccc(C(=O)O)cc1)CCS2 [Compound 1, 4-((7-Methoxy-2,3-dihydrobenzo[f][1,4]thiazepin-4(5H)-yl)methyl)benzoic acid]",MF rat %,[1],90%
same,Clint,"[1]; 6.00E+05 cells/ml, 10^-7 M",5 ml/min/gprot
same,% remaining,[2]; 15 min,54%
same,% remaining,[2]; 30 min,17%
same,% remaining,[2]; 1 h,2%
